Reference: patent US8987474B2 (University of South Florida, priority 2006, dated 2015)

Target: Shp2 (Homo sapiens (Human), UniProt Q06124)
Assay: PTP activity assay (DiFMUP substrate) with GST-Shp2
Format: biochemical
Details: for IC50: Table II, Shp2
Text: All constructs were verified by DNA sequencing.
Recombinant DEP1 was from Abcam.

Shp2, sequence (Q06124 205-593): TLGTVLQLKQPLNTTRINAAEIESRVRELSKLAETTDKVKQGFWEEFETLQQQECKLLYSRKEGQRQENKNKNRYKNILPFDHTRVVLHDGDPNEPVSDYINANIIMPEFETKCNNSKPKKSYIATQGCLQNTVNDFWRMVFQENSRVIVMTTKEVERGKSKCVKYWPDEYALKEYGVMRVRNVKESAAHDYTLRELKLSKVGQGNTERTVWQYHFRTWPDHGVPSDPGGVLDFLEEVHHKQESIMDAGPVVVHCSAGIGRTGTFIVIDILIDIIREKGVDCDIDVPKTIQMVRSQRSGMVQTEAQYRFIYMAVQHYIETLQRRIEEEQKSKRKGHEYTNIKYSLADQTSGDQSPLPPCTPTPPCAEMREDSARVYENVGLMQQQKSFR

SMILES | IC50 [µM] | % PTP activity (concentration not given) | % PTP activity (at 20 μM)
O=C1Nc2ccc(S(=O)(=O)O)cc2/C1=N/Nc1cccc([N+](=O)[O-])c1 [HL1-058-2] | 33 to 100 | 73 ± 7% (3) | 
O=C(O)c1ccc2[nH]cc(C(=O)c3ccccc3)c2c1 [RPM352, 3-Benzoyl-1H-indole-5-carboxylic acid] |  |  | 57 ± 9% (2) at 20 μM
COc1cccc(CNS(=O)(=O)c2ccc3c(c2)/C(=N/Nc2ccccc2[N+](=O)[O-])C(=O)N3)c1 [RPM137, 3-[(2-Nitrophenyl)hydrazono]-2-oxo-2,3-dihydro-1H-indole-5-sulfonic acid 3-methoxybenzylamide] |  | 31 ± 4% (12) | 
COC(=O)c1ccccc1/C=C1\C(=O)Nc2ccc(S(=O)(=O)NC(C)C)cc21 [RPM347, 2-(5-Isopropylsulfamoyl-2-oxo-1,2-dihydro-indol-3-ylidenemethyl)benzoic acid methyl ester] |  |  | 48 ± 9% (2) At 20 μM
O=C1Nc2ccc(C(=O)NCc3ccc(Cl)cc3)cc2/C1=N/Nc1cccc(C(=O)O)c1 [HL2-070-9] |  |  | 25 ± 2% (2) at 20 μM
COc1ccc(CNS(=O)(=O)c2ccc3c(c2)/C(=N/Nc2ccccc2Cl)C(=O)N3)cc1 [HL2-016-3] |  | 84 ± 24% (6) | 
O=C1Nc2ccc(S(=O)(=O)NCc3cccs3)cc2/C1=N/Nc1ccccc1[N+](=O)[O-] [RPM140, 3-[(2-Nitrophenyl)hydrazono]-2-oxo-2,3-dihydro-1H-indole-5-sulfonic acid (thiophen-2-ylmethyl)amide] |  | 37 ± 4% (6) | 
O=C1Nc2ccc(C(=O)O)cc2/C1=N/Nc1ccccc1Cl [RPM270] | 33 to 100 |  | 45 ± 18% (2) At 20 μM
O=C(O)c1cccc(NC(=O)c2ccc3cc(C(=O)O)ccc3c2)c1 [HL2-022-1] |  | 53 ± 4% (6) | 
O=C1Nc2ccc(S(=O)(=O)O)cc2/C1=N/Nc1c(F)c(F)c(F)c(F)c1F [RPM222, 2-Oxo-3-(pentafluorophenylhydrazono)-2,3-dihydro-1H-indole-5-sulfonic acid] | 33 to 100 |  | 58 ± 6% (3) at 20 μM
CN(Cc1ccccc1)S(=O)(=O)c1ccc2c(c1)/C(=N/Nc1ccccc1Cl)C(=O)N2 [HL2-016-16] |  | 64 ± 12% (6) | 
CC(C)NC(=O)c1ccc2c(c1)/C(=N/Nc1ccccc1C(=O)O)C(=O)N2 [HL2-070-6] |  |  | 78.87% (1) at 20 μM
O=C1Nc2ccc(C(=O)O)cc2/C1=N/Nc1ccccc1 [RPM272, 3-(Phenylhydrazono)-2-oxo-2,3-dihydro-1H-indole-5-carboxylic acid] |  |  | 43 ± 4% at 20 μM
Cc1ccccc1N/N=C1\C(=O)Nc2ccc(S(=O)(=O)O)cc21 [RPM216, 2-Oxo-3-[(2-methylphenylhydrazono)]-2,3-dihydro-1H-indole-5-sulfonic acid] |  |  | 50 ± 14% (3) at 20 μM
CC(C)NS(=O)(=O)c1ccc2c(c1)/C(=N/Nc1ccccc1C(=O)NCc1cccnc1)C(=O)N2 [RPM290, 2-[N′-(5-Isopropylsulfamoyl-2-oxo-1,2-dihydro-indol-3-ylidene)hydrazino]-N-pyridin-3-ylmethylbenzamide] | 33 to 100 |  | 46 ± 2% (2) At 20 μM
CCc1ccccc1N/N=C1\C(=O)Nc2ccc(S(=O)(=O)O)cc21 [RPM219, 2-Oxo-3-[(2-ethylphenylhydrazono)]-2,3-dihydro-1H-indole-5-sulfonic acid] | 33 to 100 |  | 89 ± 2% (3) at 20 μM
O=C1Nc2ccc(S(=O)(=O)NCc3ccncc3)cc2/C1=N/Nc1ccccc1Cl [HL2-016-15] |  | 48 ± 5% (6) | 
O=C1Nc2ccc(C(=O)O)cc2/C1=N/Nc1ccccc1[N+](=O)[O-] [HL2-054] |  |  | 60.57% (1) at 20 μM
CC(C)NS(=O)(=O)c1ccc2c(c1)/C(=C/Nc1cccc(C(=O)O)c1)C(=O)N2 [RPM304, 3-[(5-Isopropylsulfamoyl-2-oxo-1,2-dihydro-indol-3-ylidenemethyl)amino]benzoic acid] | 33 to 100 |  | 82.31% (1) At 20 μM
CC(C)NS(=O)(=O)c1ccc2c(c1)/C(=C/Nc1ccccc1C(=O)O)C(=O)N2 [RPM336, 2-[(5-Isopropylsulfamoyl-2-oxo-1,2-dihydro-indol-3-ylidenemethyl)amino]benzoic acid] | 33 to 100 |  | 48 ± 7% (2) at 20 μM
CN(C)CCCNS(=O)(=O)c1ccc2c(c1)/C(=N/Nc1ccccc1Cl)C(=O)N2 [HL2-016-22] |  | 80 ± 0.7% (6) | 
CC(C)NS(=O)(=O)c1ccc2c(c1)/C(=N/Nc1ccccc1C(N)=O)C(=O)N2 [RPM283, 2-[N′-(5-Isopropylsulfamoyl-2-oxo-1,2-dihydro-indol-3-ylidene)hydrazino]benzamide] |  |  | 52 ± 7% (2) At 20 μM

SMILES | IC50 [µM] | % PTP activity (concentration not given) | % PTP activity (at 20 μM)
CCN(CC)C(=O)c1ccc2c(c1)/C(=N/Nc1ccccc1[N+](=O)[O-])C(=O)N2 [HL2-070-3] |  |  | 14 ± 2% (2) at 20 μM
COCCNC(=O)c1ccccc1N/N=C1\C(=O)Nc2ccc(S(=O)(=O)NC(C)C)cc21 [RPM285, 2-[N′-(5-Isopropylsulfamoyl-2-oxo-1,2-dihydro-indol-3-ylidene)-hydrazino]-N-(2-methoxyethyl)benzamide] |  |  | 51 ± 7% (2) At 20 μM
CN(C)CCNS(=O)(=O)c1ccc2c(c1)/C(=N/Nc1ccccc1[N+](=O)[O-])C(=O)N2 [RPM146, 3-[(2-Nitrophenyl)hydrazono]-2-oxo-2,3-dihydro-1H-indole-5-sulfonic acid (2-dimethylaminoethyl)amide] |  | 57 ± 6% (6) | 
O=C1Nc2ccc(C(=O)O)cc2/C1=N/Nc1ccccc1F [RPM319] | > 100 |  | 49 ± 4% (2) At 20 μM
CN(C)S(=O)(=O)c1ccc2c(c1)/C(=N/Nc1ccccc1[N+](=O)[O-])C(=O)N2 [RPM124, 3-[(2-Nitrophenyl)hydrazono]-2-oxo-2,3-dihydro-1H-indole-5-sulfonic acid dimethylamide] | 33 to 100 | 52 ± 5% (6) | 
O=C1Nc2ccc(S(=O)(=O)NCc3ccco3)cc2/C1=N/Nc1ccccc1[N+](=O)[O-] [RPM168, 3-[(2-Nitrophenyl)hydrazono]-2-oxo-2,3-dihydro-1H-indole-5-sulfonic acid (furan-2-ylmethyl)amide] |  | 42 + 4% (6) | 
O=C1Nc2ccc(S(=O)(=O)NCc3ccncc3)cc2/C1=N/Nc1ccccc1[N+](=O)[O-] [RPM145, 3-[(2-Nitrophenyl)hydrazono]-2-oxo-2,3-dihydro-1H-indole-5-sulfonic acid (pyridin-4-ylmethyl)amide] |  | 37 + 11% (12) | 
CC(C)NS(=O)(=O)c1ccc2c(c1)/C(=N/Nc1ccccc1C(=O)NCc1ccco1)C(=O)N2 [RPM292, N-Furan-2-ylmethyl-2-[N′-(5-isopropylsulfamoyl-2-oxo-1,2-dihydro-indol-3-ylidene)hydrazino]benzamide] | 33 to 100 |  | 47 ± 7% (20 At 20 μM
CCN1C(=O)/C(=N\Nc2ccccc2[N+](=O)[O-])c2cc(S(=O)(=O)N(C)C)ccc21 [RPM176, 1-Ethyl-3-[(2-nitro-phenyl)-hydrazono]-2-oxo-2,3-dihydro-1H-indole-5-sulfonic acid dimethylamide] |  | 50% ± 5% (6) | 
O=C1Nc2ccc(C(=O)NCc3ccc(Cl)cc3)cc2/C1=N/Nc1ccccc1C(=O)O [HL2-070-4] |  |  | 30 ± 4% (2) at 20 μM
CC(C)NS(=O)(=O)c1ccc2c(c1)/C(=N/Nc1cccc(C(=O)NCc3ccco3)c1)C(=O)N2 [RPM333, N-Furan-2-ylmethyl-3-[′-(5-isopropylsulfamoyl-2-oxo-1,2-dihydro-indol-3-ylidene)hydrazino]benzamide] | 33 to 100 |  | 48 ± 9% (2) at 20 μM
O=C1Nc2ccc(S(=O)(=O)NCc3cccnc3)cc2/C1=N/Nc1ccccc1[N+](=O)[O-] [HL2-016-20] |  | 68 ± 8% (6) | 
CCC(C)NS(=O)(=O)c1ccc2c(c1)/C(=N/Nc1ccccc1[N+](=O)[O-])C(=O)N2 (stereo not drawn) [RPM173, 3-[(2-Nitrophenyl)hydrazono]-2-oxo-2,3-dihydro-1H-indole-5-sulfonic acid sec-butylamide] |  | 33 ± 7% (12) | 
O=C1Nc2ccc(S(=O)(=O)NCc3cccnc3)cc2/C1=N/Nc1ccccc1Cl [HL2-016-18] |  | 78 ± 10% (6) | 
CC(C)NS(=O)(=O)c1ccc2c(c1)/C(=N/Nc1cccc(C(=O)NCCN3CCOCC3)c1)C(=O)N2 [RPM334, 3-[N′-(5-Isopropylsulfamoyl-2-oxo-1,2-dihydro-indol-3-ylidene)hydrazino]-N-(2-morpholin-4-yl-ethyl)benzamide] |  |  | 39 ± 5% (2) at 20 μM
CC(C)NS(=O)(=O)c1ccc2c(c1)/C(=N/Nc1cccc(C(=O)NCCN(C)C)c1)C(=O)N2 [RPM326, N-(2-Dimethylamino-ethyl)-3-[N′-(5-isopropylsulfamoyl-2-oxo-1,2-dihydro-indol-3-ylidene)hydrazino]benzamide] |  |  | 57 + 13% (2) at 20 μM
COC(=O)c1ccccc1N/C=C1\C(=O)Nc2ccc(S(=O)(=O)NC(C)C)cc21 [RPM335, 2-[(5-Isopropylsulfamoyl-2-oxo-1,2-dihydro-indol-3-ylidenemethyl)amino]benzoic acid methyl ester] | 33 to 100 |  | 54.19% (1) At 20 μM
O=C1Nc2ccc(S(=O)(=O)O)cc2/C1=N/Nc1cccc2ccccc12 [RPM223, 3-(Naphthalen-1-ylhydrazono)-2-oxo-2,3-dihydro-1H-indole-5-sulfonic acid] | 33 to 100 |  | 76 + 12% at 20 μM
CC(C)NS(=O)(=O)c1ccc2c(c1)/C(=N/Nc1ccccc1C(=O)NCCN(C)C)C(=O)N2 [RPM284, N-(2-Dimethylaminoethyl)-2-[N′-(5-isopropylsulfamoyl-2-oxo-1,2-dihydro-indol-3-ylidene)hydrazino]benzamide] |  |  | 47 ± 6% (2) At 20 μM
O=C1Nc2ccc(S(=O)(=O)O)cc2/C1=N/Nc1cc(Cl)ccc1Cl [RPM225, 2-Oxo-3-[(2,5-dichlorophenylhydrazono)]-2,3-dihydro-1H-indole-5-sulfonic acid] | 33 to 100 |  | 73 ± 22% at 20 μM
CN(Cc1ccccc1)S(=O)(=O)c1ccc2c(c1)/C(=N/Nc1ccccc1[N+](=O)[O-])C(=O)N2 [RPM136, 3-[(2-Nitrophenyl)hydrazono]-2-oxo-2,3-dihydro-1H-indole-5-sulfonic acid benzyl-methylamide] |  | 39 ± 8% (12) | 
